Laboratory results reported in ChEMBL document CHEMBL3593188, “Exploring the size adaptability of the B ring binding zone of the colchicine site of tubulin with para-nitrogen substituted isocombretastatins” (Eur J Med Chem, 2015).
Converted amounts (≈) assume the structure as drawn. The source made the active and inactive calls. The calls are words filed in the database; no cut-off is given here.

Experiments:
[1] = Aqueous solubility of the compound in phosphate buffer at pH 7 after 48 hrs by spectrophotometric analysis; assay type: physicochemical
[2] = Inhibition of calf brain tubulin polymerization after 20 mins by spectrophotometric analysis; design: species or system Bos taurus
HeLa = assay: Cytotoxicity against human HeLa cells assessed as inhibition of cell proliferation after 72 hrs by XTT assay; assay type: functional, cell-based
HT-29 [3] = assay: Cytotoxicity against human HT-29 cells assessed as inhibition of cell proliferation after 72 hrs by XTT assay; assay type: functional, cell-based; settings: HT-29, 72 h
HL-60 = assay: Cytotoxicity against human HL60 cells assessed as inhibition of cell proliferation after 72 hrs by XTT assay; assay type: functional, cell-based; settings: HL-60, 72 h
HT-29 [4] = assay: Cell cycle arrest in human HT-29 cells assessed as accumulation at G2/M phase at 100 nM after 24 hrs by propidium iodide staining-based flow cytometric analysis; assay type: functional
HT-29 [5] = assay: Cell cycle arrest in human HT-29 cells assessed as accumulation at G2/M phase at 50 nM after 24 hrs by propidium iodide staining-based flow cytometric analysis; assay type: functional
HCT-116 = assay: Induction of microtubule disruption in human HCT116 cells at 50 nM after 24 hrs by DAPI staining-based confocal microscopic analysis; assay type: cell-based
HT-29 [6] = assay: Inhibition of autophagy in human HT-29 cells assessed as accumulation of slower migrating LC3-I band at 35 nM after 24 to 72 hrs by Western blot analysis; assay type: functional, cell-based
HT-29 [7] = assay: Inhibition of autophagy in human HT-29 cells assessed as absence of faster migrating LC3-II band decay at 35 nM after 24 to 72 hrs by Western blot analysis; assay type: functional, cell-based

SMILES | solubility at 48 h [1] | IC50 [2] | IC50 (HeLa) | IC50 (HT-29 [3]) | IC50 (HL-60) | Activity (HT-29 [4]) | Activity (HT-29 [5]) | Activity (HCT-116) | inhibition (HT-29 [6]) | inhibition (HT-29 [7])
COc1cc(C(=O)c2ccc(N(C)C)c(C=O)c2)cc(OC)c1OC | 8.9 µg/mL (≈ 25.9 µM) | > 20000 nM | > 1000 nM | > 1000 nM | > 1000 nM | – | – | – | – | –
COc1cc(/C(=N/O)c2ccc(N(C)C)cc2)cc(OC)c1OC | 74 µg/mL (≈ 224 µM) | > 10000 nM | 800 nM | 10000 nM | 600 nM | – | – | – | – | –
C=C(c1ccc(N(C)C)c(C=O)c1)c1cc(OC)c(OC)c(OC)c1 | 107 µg/mL (≈ 313 µM) | > 10000 nM | 800 nM | > 1000 nM | 900 nM | – | – | – | – | –
COc1ccc(/C=C\c2cc(OC)c(OC)c(OC)c2)cc1O [COMBRETASTATIN A4] | – | 3000 nM | – | 30 nM | – | – | – | – | – | –
COc1cc(C(=O)c2ccc(N(C)C)c([N+](=O)[O-])c2)cc(OC)c1OC | 3.7 µg/mL (≈ 10.3 µM) | > 20000 nM | > 1000 nM | > 1000 nM | > 1000 nM | – | – | – | – | –
COc1cc(C(=O)c2ccc(N(C)C)cc2)cc(OC)c1OC | – | > 20000 nM | 90 nM | 400 nM | 200 nM | – | – | – | – | –
C=C(c1ccc(N(C)C)cc1)c1cc(OC)c(OC)c(OC)c1 | 30 µg/mL (≈ 95.7 µM) | 1900 nM | 40 nM | 70 nM | 10 nM | – | >85% | Active | Active | Active
C=C(c1ccc(N(C)C)c(C=NO)c1)c1cc(OC)c(OC)c(OC)c1 | 123 µg/mL (≈ 345 µM) | > 5000 nM | 900 nM | > 1000 nM | 1000 nM | – | – | – | – | –

Further lines, with some results ahead:

solubility at 48 h [1] | IC50 [2] | SMILES | IC50 (HeLa) | IC50 (HT-29 [3]) | IC50 (HL-60) | Activity (HT-29 [4]) | Activity (HT-29 [5]) | Activity (HCT-116) | inhibition (HT-29 [6]) | inhibition (HT-29 [7])
84 µg/mL (≈ 248 µM) | > 5000 nM | C=C(c1ccc(N(C)C)c(C#N)c1)c1cc(OC)c(OC)c(OC)c1 | 400 nM | 960 nM | 800 nM | – | – | – | – | –
11 µg/mL (≈ 28.5 µM) | > 5000 nM | C=C(c1cc(OC)c(OC)c(OC)c1)c1ccc(N(C)C)c(C2OCCO2)c1 | 600 nM | > 1000 nM | 800 nM | – | – | – | – | –
13.7 µg/mL (≈ 38.4 µM) | > 5000 nM | COc1cc(/C(=N/O)c2ccc(N3CCCC3)cc2)cc(OC)c1OC | 600 nM | > 1000 nM | 400 nM | – | – | – | – | –
1.8 µg/mL (≈ 4.48 µM) | 1500 nM | C/C=C(/c1cc(OC)c(OC)c(OC)c1)c1ccc2c(c1)c1ccccc1n2CC | 700 nM | 560 nM | 400 nM | inactive | – | – | – | –
1.3 µg/mL (≈ 3.83 µM) | 1100 nM | C=C(c1ccc(N2CCCC2)cc1)c1cc(OC)c(OC)c(OC)c1 | 200 nM | 600 nM | 400 nM | Active | – | – | – | –
2.6 µg/mL (≈ 7.62 µM) | > 5000 nM | COc1cc(C(=O)c2ccc(N3CCCC3)cc2)cc(OC)c1OC | 800 nM | > 1000 nM | 800 nM | – | – | – | – | –
2 µg/mL (≈ 5.14 µM) | 1600 nM | CCn1c2ccccc2c2cc(C(=O)c3cc(OC)c(OC)c(OC)c3)ccc21 | 700 nM | 400 nM | 700 nM | inactive | – | – | – | –
– | > 5000 nM | C=C(c1ccc(N(C)C)c(N)c1)c1cc(OC)c(OC)c(OC)c1 | 500 nM | 600 nM | 400 nM | – | – | – | – | –
– | > 5000 nM | COc1cc(C(=O)c2ccc(N(C)C)c(N)c2)cc(OC)c1OC | 600 nM | 900 nM | 700 nM | – | – | – | – | –
2.5 µg/mL (≈ 6.45 µM) | 900 nM | C=C(c1cc(OC)c(OC)c(OC)c1)c1ccc2c(c1)c1ccccc1n2CC | 80 nM | 200 nM | 90 nM | Active | – | – | – | –
4.2 µg/mL (≈ 10.4 µM) | 1600 nM | CCn1c2ccccc2c2cc(/C(=N/O)c3cc(OC)c(OC)c(OC)c3)ccc21 | 100 nM | 300 nM | 100 nM | inactive | – | – | – | –
